Laboratory results taken from patent publication US8859574B2 (IRM LLC, priority 2008, dated 2014).

Target: T1, IGF-1R Ba/F3 (Homo sapiens, UniProt P08069)
T1 construct: fused on or other part: TEL- (or BCR-) IGF-1R in Ba/F3: the kinase part holds the site
Experiment: Ba/F3 Cell Viability Inhibition Assay (IGF-1R Ba/F3)
Type: cell-based, murine
Conditions: Tel-TK transformed Ba/F3 cells, 48 hours, Britelite luminescence
Excerpt: The IC50 of a drug may be determined constructing a dose-response curve and examining the effect of different concentrations of antagonist on reversing agonist activity. IC50 values may be calculated for a given antagonist by determining the concentration needed to inhibit half of the maximum biological response of the agonist. To calculate IC50 values, a series of dose-response data (e.g., drug concentrations x1, x2, . . . , xn and growth inhibition y1, y2, . . . , yn, the values of y are in the range of 0-1) is generated. IC50 values may be determined by a computer-aided system using the formula: y=D+((A−D)/(1+10^(x-log(IC50)B) • where A is the ratio of growth inhibition between lowest drug concentration and control; B is the slope of sigmoidal curvel; and D is the ratio of growth inhibition between highest drug concentration and control.
Ba/F3 is a murine IL-3-dependent pro-B lymphoma cell line. Parental Ba/F3 cells are used to generate a panel of sublines whose proliferation and survival is rendered IL-3-independent by stable transduction with individual tyrosine kinases activated by fusion with the amino-terminal portion of TEL (amino acid 1-375) or BCR. In order to generate Ba/F3 cell lines transformed by Tel-Tyrosine Kinase (TK) fusions, parental Ba/F3 cells are infected with a retrovirus harboring each TEL-fusion kinase and subjected to puromycin selection and IL-3 withdrawal to obtain IL-3-independent, transformed Ba/F3 cells.
Each transformed Ba/F3 cells are cultured in RPMI-1640 media (Gibco Cat #11875093, Carlsbad, Calif.) supplemented with 10% FBS (Hyclone Cat #SV30014.03, Logan, Utah), 4.5 g/L glucose (Sigma #G5400, St. Louis, Mo.), 1.5 g/L sodium bicarbonate (Biowhittaker #17-613E, Walkersville, Md.) and Pen/Strep (Gibco #10378-016, Carlsbad, Calif.). Cells are splitted twice weekly.
The potency of test compounds against various Tel-TK transformed Ba/F3 lines is determined as follows. Exponentially growing BaF3 Tel-TK cells are diluted in fresh medium to 75,000 cells/mL and seeded into 384-well plates (3750 cells/well) at 50 μL/well using a μFill liquid dispenser (BioTek, Winooski, Vt., USA). Duplicate plates are run for each cell line. Test and control compounds are serially diluted with DMSO and arrayed in a polypropylene 384-well plate. […] of compound is transferred into the assay plates using a pin-transfer device, and the plates are incubated at 37° C. (5% CO2) for 48 hours. 25 μL Britelite (Perkin Elmer) is added and luminescence is quantified using Analyst GT (Molecular Devices). Custom curve-fitting software is used to produce a logistic fit of percent cell viability as a function of the logarithm of inhibitor concentration. The IC50 is interpolated as the concentration of compound needed to reduce cell viability to 50% of a DMSO control. Parental Ba/F3 cells that are maintained and cultured in presence of IL-3 (1 ng/ml in final) are diluted in fresh medium containing IL-3 (1 ng/ml in final) to 75,000 cells/mL following the same procedure as described above.

T1 sequence (P08069 999-1274 limits assumed): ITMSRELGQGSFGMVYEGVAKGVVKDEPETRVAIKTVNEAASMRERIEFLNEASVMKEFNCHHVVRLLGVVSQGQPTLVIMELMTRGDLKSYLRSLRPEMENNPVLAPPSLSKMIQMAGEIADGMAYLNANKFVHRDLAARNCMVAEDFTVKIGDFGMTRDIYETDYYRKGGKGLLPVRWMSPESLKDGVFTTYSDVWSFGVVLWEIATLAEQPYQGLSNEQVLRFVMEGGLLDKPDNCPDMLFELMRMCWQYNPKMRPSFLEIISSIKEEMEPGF

SMILES | IC50 [nM]
CCc1noc(CN2CCC(c3cc(F)c(Nc4ncc(Cl)c(Nc5cc(C)[nH]n5)n4)cc3C)CC2)n1 [Compound 284, 5-chloro-N2-(4-(1-((3-ethyl-1,2,4-oxadiazol-5-yl)methyl)piperidin-4-yl)-2-fluoro-5-methylphenyl)-N4-(5-methyl-1H-pyrazol-3-yl)pyrimidine-2,4-diamine] | 33
Cc1cc(Nc2nc(Nc3cc(C)c(C4CCN(C(=O)c5c(C)nn(C)c5C)CC4)cc3F)ncc2Cl)n[nH]1 [Compound 129, (4-(4-(5-chloro-4-(5-methyl-1H-pyrazol-3-ylamino)pyrimidin-2-ylamino)-5-fluoro-2-methylphenyl)piperidin-1-yl)(1,3,5-trimethyl-1H-pyrazol-4-yl)methanone] | 25
Cc1cc(Nc2nc(Nc3cc(C)c(C4CCN(C(=O)N5CCN(C)CC5)CC4)cc3F)ncc2Cl)n[nH]1 [Compound 112, (4-(4-(5-chloro-4-(5-methyl-1H-pyrazol-3-ylamino)pyrimidin-2-ylamino)-5-fluoro-2-methylphenyl)piperidin-1-yl)(4-methylpiperazin-1-yl)methanone] | 21
Cc1cc(Nc2nc(Nc3cc(C)c(C4CCN(C(C)C(N)=O)CC4)cc3F)ncc2Cl)n[nH]1 (centres unmarked) [Compound 49, 2-(4-(4-(5-chloro-4-(5-methyl-1H-pyrazol-3-ylamino)pyrimidin-2-ylamino)-5-fluoro-2-methylphenyl)piperidin-1-yl)propanamide] | 15
Cc1cc(Nc2nc(Nc3cc(C)c(C4CCCCN4C(=O)C4(O)CC4)cc3C)ncc2Cl)n[nH]1 (centres unmarked) [Compound 193, (2-(4-(5-chloro-4-(5-methyl-1H-pyrazol-3-ylamino)pyrimidin-2-ylamino)-2,5-dimethylphenyl)piperidin-1-yl)(1-hydroxycyclopropyl)methanone] | 76
Cc1cc(Nc2nc(Nc3cc(C)c(C4CCN(C(=O)CCCN5CCCC5)CC4)cc3C)ncc2Cl)n[nH]1 [Compound 227, 1-(4-(4-(5-chloro-4-(5-methyl-1H-pyrazol-3-ylamino)pyrimidin-2-ylamino)-2,5-dimethylphenyl)piperidin-1-yl)-4-(pyrrolidin-1-yl)butan-1-one] | 123
Cc1cc(Nc2nc(Nc3cc(C)c(C4CCCCN4C)cc3C)ncc2Cl)n[nH]1 (centres unmarked) [Compound 16, 5-chloro-N2-(2,5-dimethyl-4-(1-methylpiperidin-2-yl)phenyl)-N4-(5-methyl-1H-pyrazol-3-yl)pyrimidine-2,4-diamine] | 19
Cc1cc(Nc2nc(Nc3cc(C)c(C4CCN(C(=O)C5CCN(C)CC5)CC4)cc3F)ncc2Cl)n[nH]1 [Compound 118, (4-(4-(5-chloro-4-(5-methyl-1H-pyrazol-3-ylamino)pyrimidin-2-ylamino)-5-fluoro-2-methylphenyl)piperidin-1-yl)(1-methylpiperidin-4-yl)methanone] | 81
Cc1cc(Nc2nc(Nc3cc(C)c(C4CCN(Cc5noc(C(C)(C)C)n5)CC4)cc3F)ncc2Cl)n[nH]1 [Compound 267, N2-(4-(1-((5-tert-butyl-1,2,4-oxadiazol-3-yl)methyl)piperidin-4-yl)-2-fluoro-5-methylphenyl)-5-chloro-N4-(5-methyl-1H-pyrazol-3-yl)pyrimidine-2,4-diamine] | 77
CNC(C)(C)C(=O)N1CCC(c2cc(F)c(Nc3ncc(Cl)c(Nc4cc(C)[nH]n4)n3)cc2C)CC1 [Compound 87, 1-(4-(4-(5-chloro-4-(5-methyl-1H-pyrazol-3-ylamino)pyrimidin-2-ylamino)-5-fluoro-2-methylphenyl)piperidin-1-yl)-2-methyl-2-(methylamino)propan-1-one] | 17
Cc1cc(Nc2ncc(Cl)c(Nc3cc(C(F)(F)F)[nH]n3)n2)c(F)cc1C1CCNCC1 [Compound 171, 5-chloro-N2-(2-fluoro-5-methyl-4-(piperidin-4-yl)phenyl)-N4-(5-(trifluoromethyl)-1H-pyrazol-3-yl)pyrimidine-2,4-diamine] | 67
CCNC1(C(=O)N2CCC(c3cc(F)c(Nc4ncc(Cl)c(Nc5cc(C)[nH]n5)n4)cc3C)CC2)CCC1 [Compound 176, (4-(4-(5-chloro-4-(5-methyl-1H-pyrazol-3-ylamino)pyrimidin-2-ylamino)-5-fluoro-2-methylphenyl)piperidin-1-yl)(1-(ethylamino)cyclobutyl)methanone] | 84
Cc1cc(Nc2nc(Nc3cc(C)c(C4CCN(Cc5ccncc5)CC4)cc3F)ncc2Cl)n[nH]1 [Compound 288, 5-chloro-N2-(2-fluoro-5-methyl-4-(1-(pyridin-4-ylmethyl)piperidin-4-yl)phenyl)-N4-(5-methyl-1H-pyrazol-3-yl)pyrimidine-2,4-diamine] | 93
Cc1cc(Nc2nc(Nc3cc(C)c(C4CCN(Cc5cccnc5)CC4)cc3F)ncc2Cl)n[nH]1 [Compound 297, 5-chloro-N2-(2-fluoro-5-methyl-4-(1-(pyridin-3-ylmethyl)piperidin-4-yl)phenyl)-N4-(5-methyl-1H-pyrazol-3-yl)pyrimidine-2,4-diamine] | 79
Cc1cc(Nc2nc(Nc3cc(C)c(C4CCN(Cc5ccnnc5)CC4)cc3F)ncc2Cl)n[nH]1 [Compound 316, 5-chloro-N2-(2-fluoro-5-methyl-4-(1-(pyridazin-4-ylmethyl)piperidin-4-yl)phenyl)-N4-(5-methyl-1H-pyrazol-3-yl)pyrimidine-2,4-diamine] | 27
CC[N+]1([O-])CCC(c2cc(F)c(Nc3ncc(Cl)c(Nc4cc(C)[nH]n4)n3)cc2C)CC1 (centres unmarked) [Compound 289, 4-(4-(5-chloro-4-(5-methyl-1H-pyrazol-3-ylamino)pyrimidin-2-ylamino)-5-fluoro-2-methylphenyl)-1-ethylpiperidine-1-oxide] | 370
Cc1cc(Nc2nc(Nc3cc(C(F)(F)F)c(C4CCN(C)CC4)cc3C)ncc2Cl)n[nH]1 [Compound 218, 5-chloro-N4-(5-methyl-1H-pyrazol-3-yl)-N2-(2-methyl-4-(1-methylpiperidin-4-yl)-5-(trifluoromethyl)phenyl)pyrimidine-2,4-diamine] | 26
Cc1cc(Nc2nc(Nc3cc(C)c(C4CCN(C=O)CC4)cc3F)ncc2Cl)n[nH]1 [Compound 206, 4-(4-(5-chloro-4-(5-methyl-1H-pyrazol-3-ylamino)pyrimidin-2-ylamino)-5-fluoro-2-methylphenyl)piperidine-1-carbaldehyde] | 30
Cc1cc(Nc2nc(Nc3cc(C)c(C4CCN(CCS(N)(=O)=O)CC4)cc3F)ncc2Cl)n[nH]1 [Compound 59, 2-(4-(4-(5-chloro-4-(5-methyl-1H-pyrazol-3-ylamino)pyrimidin-2-ylamino)-5-fluoro-2-methylphenyl)piperidin-1-yl)ethanesulfonamide] | 38
COc1cc(Nc2ncc(Cl)c(Nc3cc(C)[nH]n3)n2)c(C)cc1C1CCN(C[C@@H](O)C(F)(F)F)CC1 [Compound 228, (R)-3-(4-(4-(5-chloro-4-(5-methyl-1H-pyrazol-3-ylamino)pyrimidin-2-ylamino)-2-methoxy-5-methylphenyl)piperidin-1-yl)-1,1,1-trifluoropropan-2-ol] | 23
Cc1cc(Nc2nc(Nc3cc(C)c(C4CCN(C(=O)[C@H]5CCCN5C(C)C)CC4)cc3F)ncc2Cl)n[nH]1 [Compound 135, (R)-(4-(4-(5-chloro-4-(5-methyl-1H-pyrazol-3-ylamino)pyrimidin-2-ylamino)-5-fluoro-2-methylphenyl)piperidin-1-yl)(1-isopropylpyrrolidin-2-yl)methanone] | 48
Cc1cc(Nc2nc(Nc3cc(C)c(C4CCN(C(=O)CCN5CCOCC5)CC4)cc3C)ncc2Cl)n[nH]1 [Compound 225, 1-(4-(4-(5-Chloro-4-(5-methyl-1H-pyrazol-3-ylamino)pyrimidin-2-ylamino)-2,5-dimethylphenyl)piperidin-1-yl)-3-morpholinopropan-1-one] | 17
Cc1cc(Nc2nc(Nc3cc(C(F)(F)F)c(C4CCN(CC(N)=O)CC4)cc3C)ncc2Cl)n[nH]1 [Compound 47, 2-(4-(4-(5-chloro-4-(5-methyl-1H-pyrazol-3-ylamino)pyrimidin-2-ylamino)-5-methyl-2-(trifluoromethyl)phenyl)piperidin-1-yl)acetamide] | 22
